Experimental data as given in publication PMC10382584, “Macrocyclization of linear molecules by deep learning to facilitate macrocyclic drug candidates discovery” (Nature Communications, 2023).

Assays:
Assay in all cases: biochemical
Set-up in all cases: DiscoveRx KINOMEscan competition binding, percent of DMSO control signal at 100 nM
Details in all cases: read-out: Fig. 4a / Percent Control / Compound 1; percent of DMSO control, competition binding
[1] = biological target: AAK1 (Homo sapiens, UniProt Q2M2I8)
Method: (§1) The kinase selectivity profile was performed by using the DiscoveRx KINOMEscan platform. […] Test compounds were prepared as 40× stocks in 100% DMSO and directly diluted into the assay. The results were defined as a percentage of signal between the negative (DMSO, 100% control) and the positive (control compound, 0% control) control, which was calculated as follows: percent control = [(test compound signal − positive control signal)/(negative control signal − positive control signal)] × 100.

[2] = biological target: T1, ABL1(T315I)-nonphosphorylated (Homo sapiens, UniProt P00519, T315I)
T1 construct: nonphosphorylated
Method: as §1

[3] = biological target: T2, AMPK-alpha1 (Homo sapiens, UniProt Q13131)
T2 construct: gene PRKAA1
Method: as §1

[4] = biological target: AURKA (Homo sapiens, UniProt O14965)
Method: as §1

[5] = biological target: T3, BRK (Homo sapiens, UniProt Q13882)
T3 construct: gene PTK6
Method: as §1

[6] = biological target: T4, CDC2L5 (Homo sapiens, UniProt Q14004)
T4 construct: gene CDK13
Method: as §1

[7] = biological target: CDK7 (Homo sapiens, UniProt P50613)
Method: as §1

[8] = biological target: CSNK1A1 (Homo sapiens, UniProt P48729)
Method: as §1

[9] = biological target: CSNK1G2 (Homo sapiens, UniProt P78368)
Method: as §1

[10] = biological target: CSNK1G3 (Homo sapiens, UniProt Q9Y6M4)
Method: as §1

[11] = biological target: T5, DLK (Homo sapiens, UniProt Q12852)
T5 construct: gene MAP3K12
Method: as §1

[12] = biological target: EGFR(E746-A750del) (Homo sapiens, UniProt P00533, DEL746-750)
Method: as §1

[13] = biological target: EPHA1 (Homo sapiens, UniProt P21709)
Method: as §1

[14] = biological target: FLT3(R834Q) (Homo sapiens, UniProt P36888, R834Q)
Method: as §1

[15] = biological target: HIPK4 (Homo sapiens, UniProt Q8NE63)
Method: as §1

[16] = biological target: IGF1R (Homo sapiens, UniProt P08069)
Method: as §1

[17] = biological target: IRAK4 (Homo sapiens, UniProt Q9NWZ3)
Method: as §1

[18] = biological target: KIT(L576P) (Homo sapiens, UniProt P10721, L576P)
Method: as §1

[19] = biological target: T6, LKB1 (Homo sapiens, UniProt Q15831)
T6 construct: gene STK11
Method: as §1

[20] = biological target: NEK9 (Homo sapiens, UniProt Q8TD19)
Method: as §1

[21] = biological target: T7, NIK (Homo sapiens, UniProt Q99558)
T7 construct: gene MAP3K14
Method: as §1

[22] = biological target: T8, PIK4CB (Homo sapiens, UniProt Q9UBF8)
T8 construct: gene PI4KB
Method: as §1

[23] = biological target: RET(V804L) (Homo sapiens, UniProt P07949, V804L)
Method: as §1

[24] = biological target: SGK3 (Homo sapiens, UniProt Q96BR1)
Method: as §1

[25] = biological target: ULK2 (Homo sapiens, UniProt Q8IYT8)
Method: as §1
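Also: KINOMEscan kinase panel binding assay, signal normalized between DMSO as 100% and a positive control compound as 0%.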

AAK1, sequence (Q2M2I8 whole entry): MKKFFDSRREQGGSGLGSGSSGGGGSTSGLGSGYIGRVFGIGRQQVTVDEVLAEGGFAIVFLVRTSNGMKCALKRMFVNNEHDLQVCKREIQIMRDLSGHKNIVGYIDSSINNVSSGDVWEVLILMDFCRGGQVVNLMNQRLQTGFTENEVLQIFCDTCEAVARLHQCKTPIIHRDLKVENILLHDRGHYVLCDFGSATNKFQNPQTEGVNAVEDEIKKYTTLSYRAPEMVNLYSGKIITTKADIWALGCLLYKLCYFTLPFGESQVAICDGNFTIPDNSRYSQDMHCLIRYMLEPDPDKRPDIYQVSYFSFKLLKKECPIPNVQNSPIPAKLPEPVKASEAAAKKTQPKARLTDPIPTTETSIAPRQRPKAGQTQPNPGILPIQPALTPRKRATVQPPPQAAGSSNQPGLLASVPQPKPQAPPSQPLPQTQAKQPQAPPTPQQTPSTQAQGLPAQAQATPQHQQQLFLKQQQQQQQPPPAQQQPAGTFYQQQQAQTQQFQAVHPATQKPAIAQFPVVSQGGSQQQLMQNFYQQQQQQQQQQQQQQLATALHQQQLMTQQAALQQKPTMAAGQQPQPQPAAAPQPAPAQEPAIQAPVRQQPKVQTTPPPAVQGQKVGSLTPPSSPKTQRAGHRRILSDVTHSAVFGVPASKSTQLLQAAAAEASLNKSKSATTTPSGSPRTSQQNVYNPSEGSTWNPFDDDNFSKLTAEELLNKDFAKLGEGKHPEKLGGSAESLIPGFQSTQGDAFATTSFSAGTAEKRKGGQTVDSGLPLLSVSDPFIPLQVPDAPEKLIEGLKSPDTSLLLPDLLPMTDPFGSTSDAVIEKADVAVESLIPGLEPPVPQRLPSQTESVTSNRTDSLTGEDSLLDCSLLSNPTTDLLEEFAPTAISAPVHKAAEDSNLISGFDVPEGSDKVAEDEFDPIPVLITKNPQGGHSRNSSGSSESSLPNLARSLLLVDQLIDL
IGF1R, sequence (P08069 whole entry): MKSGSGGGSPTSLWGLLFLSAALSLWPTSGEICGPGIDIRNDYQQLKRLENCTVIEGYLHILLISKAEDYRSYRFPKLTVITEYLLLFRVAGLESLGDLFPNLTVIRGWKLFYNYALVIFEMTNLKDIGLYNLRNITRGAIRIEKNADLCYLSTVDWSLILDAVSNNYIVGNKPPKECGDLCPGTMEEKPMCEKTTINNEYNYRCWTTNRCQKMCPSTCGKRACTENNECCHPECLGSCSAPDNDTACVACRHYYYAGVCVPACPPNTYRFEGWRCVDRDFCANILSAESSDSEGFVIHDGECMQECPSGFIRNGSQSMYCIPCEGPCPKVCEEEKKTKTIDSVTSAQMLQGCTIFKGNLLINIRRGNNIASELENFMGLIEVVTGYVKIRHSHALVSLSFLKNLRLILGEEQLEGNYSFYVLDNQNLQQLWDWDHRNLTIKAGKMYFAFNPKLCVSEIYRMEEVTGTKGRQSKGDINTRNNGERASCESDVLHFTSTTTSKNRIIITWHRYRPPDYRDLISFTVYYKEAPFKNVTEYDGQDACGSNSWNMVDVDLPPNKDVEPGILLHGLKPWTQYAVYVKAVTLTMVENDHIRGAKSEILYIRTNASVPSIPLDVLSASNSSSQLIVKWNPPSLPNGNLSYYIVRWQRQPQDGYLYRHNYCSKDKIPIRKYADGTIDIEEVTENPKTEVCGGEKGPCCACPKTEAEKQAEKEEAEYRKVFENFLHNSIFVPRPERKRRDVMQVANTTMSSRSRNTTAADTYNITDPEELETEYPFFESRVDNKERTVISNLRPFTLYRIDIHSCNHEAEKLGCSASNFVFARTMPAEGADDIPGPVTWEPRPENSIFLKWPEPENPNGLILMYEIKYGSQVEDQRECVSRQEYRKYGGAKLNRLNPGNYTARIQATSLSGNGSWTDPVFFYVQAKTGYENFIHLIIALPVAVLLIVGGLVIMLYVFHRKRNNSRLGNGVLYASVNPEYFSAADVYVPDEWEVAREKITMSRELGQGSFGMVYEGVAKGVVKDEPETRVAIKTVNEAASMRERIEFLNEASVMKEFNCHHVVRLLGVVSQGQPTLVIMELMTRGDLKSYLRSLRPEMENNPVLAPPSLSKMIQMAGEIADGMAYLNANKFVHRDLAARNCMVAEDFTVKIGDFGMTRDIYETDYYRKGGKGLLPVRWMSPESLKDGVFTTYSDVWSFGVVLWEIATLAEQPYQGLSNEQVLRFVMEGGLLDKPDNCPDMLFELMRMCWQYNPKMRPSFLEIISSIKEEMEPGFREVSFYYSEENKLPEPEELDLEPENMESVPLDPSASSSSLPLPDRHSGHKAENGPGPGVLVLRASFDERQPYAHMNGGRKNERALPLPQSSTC
CSNK1G3, sequence (Q9Y6M4 whole entry): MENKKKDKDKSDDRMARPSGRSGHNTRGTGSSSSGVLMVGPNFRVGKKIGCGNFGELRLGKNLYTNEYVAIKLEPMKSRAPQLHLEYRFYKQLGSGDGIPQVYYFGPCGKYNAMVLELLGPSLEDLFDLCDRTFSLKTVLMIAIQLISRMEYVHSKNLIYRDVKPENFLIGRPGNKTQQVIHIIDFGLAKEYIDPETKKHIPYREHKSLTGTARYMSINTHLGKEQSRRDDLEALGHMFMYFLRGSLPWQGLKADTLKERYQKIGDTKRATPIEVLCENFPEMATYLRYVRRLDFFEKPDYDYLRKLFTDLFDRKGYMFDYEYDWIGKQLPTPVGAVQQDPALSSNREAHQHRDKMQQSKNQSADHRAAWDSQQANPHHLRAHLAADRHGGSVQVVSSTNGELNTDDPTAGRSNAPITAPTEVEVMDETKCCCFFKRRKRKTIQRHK
T4 sequence (Q14004 whole entry): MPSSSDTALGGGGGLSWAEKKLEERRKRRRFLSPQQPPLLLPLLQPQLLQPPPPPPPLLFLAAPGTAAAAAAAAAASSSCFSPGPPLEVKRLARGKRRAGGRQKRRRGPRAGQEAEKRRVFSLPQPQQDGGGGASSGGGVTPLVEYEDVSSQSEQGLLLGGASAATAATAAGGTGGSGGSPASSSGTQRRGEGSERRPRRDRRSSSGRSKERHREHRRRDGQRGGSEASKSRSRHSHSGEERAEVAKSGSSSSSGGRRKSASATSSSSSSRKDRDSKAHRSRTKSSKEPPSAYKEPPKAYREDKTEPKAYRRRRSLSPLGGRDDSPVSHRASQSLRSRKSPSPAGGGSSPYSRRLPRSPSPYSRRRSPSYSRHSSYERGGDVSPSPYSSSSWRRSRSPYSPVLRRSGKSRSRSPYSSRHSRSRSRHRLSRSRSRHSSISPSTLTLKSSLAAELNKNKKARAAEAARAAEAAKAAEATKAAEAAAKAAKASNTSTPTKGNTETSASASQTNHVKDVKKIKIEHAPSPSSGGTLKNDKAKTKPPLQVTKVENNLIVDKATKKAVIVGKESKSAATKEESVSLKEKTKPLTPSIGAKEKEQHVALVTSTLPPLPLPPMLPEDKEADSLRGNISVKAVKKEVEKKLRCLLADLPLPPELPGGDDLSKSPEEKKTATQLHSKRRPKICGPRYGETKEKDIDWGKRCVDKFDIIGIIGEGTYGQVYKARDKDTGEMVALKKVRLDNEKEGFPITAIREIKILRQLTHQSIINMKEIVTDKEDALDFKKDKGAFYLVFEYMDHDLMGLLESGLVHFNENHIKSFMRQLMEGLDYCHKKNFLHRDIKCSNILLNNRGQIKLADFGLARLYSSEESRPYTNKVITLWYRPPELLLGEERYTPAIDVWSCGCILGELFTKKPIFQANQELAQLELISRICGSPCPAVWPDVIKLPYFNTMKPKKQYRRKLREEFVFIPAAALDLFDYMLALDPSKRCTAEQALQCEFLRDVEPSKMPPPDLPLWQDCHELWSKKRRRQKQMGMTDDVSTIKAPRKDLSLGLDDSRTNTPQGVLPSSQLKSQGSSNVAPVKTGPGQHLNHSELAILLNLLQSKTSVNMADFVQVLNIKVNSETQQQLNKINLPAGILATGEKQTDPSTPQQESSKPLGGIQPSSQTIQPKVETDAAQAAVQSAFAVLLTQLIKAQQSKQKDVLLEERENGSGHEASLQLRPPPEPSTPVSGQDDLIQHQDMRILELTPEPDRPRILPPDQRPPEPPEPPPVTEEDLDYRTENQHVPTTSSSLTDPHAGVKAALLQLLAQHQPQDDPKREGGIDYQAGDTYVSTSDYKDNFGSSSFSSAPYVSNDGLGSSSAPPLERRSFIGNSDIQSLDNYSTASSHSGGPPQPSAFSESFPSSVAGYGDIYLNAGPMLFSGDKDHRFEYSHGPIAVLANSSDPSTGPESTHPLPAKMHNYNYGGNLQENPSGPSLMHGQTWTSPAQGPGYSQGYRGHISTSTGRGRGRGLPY
T3 sequence (Q13882 whole entry): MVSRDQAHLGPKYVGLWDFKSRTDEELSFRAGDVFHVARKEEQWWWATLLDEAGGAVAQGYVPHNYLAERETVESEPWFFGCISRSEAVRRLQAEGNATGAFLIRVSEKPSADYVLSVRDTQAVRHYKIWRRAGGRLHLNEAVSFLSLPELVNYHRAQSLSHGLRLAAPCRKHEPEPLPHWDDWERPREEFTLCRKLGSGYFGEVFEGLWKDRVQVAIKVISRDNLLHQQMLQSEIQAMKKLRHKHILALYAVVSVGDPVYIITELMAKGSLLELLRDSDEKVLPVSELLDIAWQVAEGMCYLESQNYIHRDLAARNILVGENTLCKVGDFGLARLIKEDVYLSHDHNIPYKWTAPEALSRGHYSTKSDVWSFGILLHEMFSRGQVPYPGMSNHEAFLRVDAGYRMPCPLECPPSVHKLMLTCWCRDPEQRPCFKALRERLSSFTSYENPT
CSNK1A1, sequence (P48729 whole entry): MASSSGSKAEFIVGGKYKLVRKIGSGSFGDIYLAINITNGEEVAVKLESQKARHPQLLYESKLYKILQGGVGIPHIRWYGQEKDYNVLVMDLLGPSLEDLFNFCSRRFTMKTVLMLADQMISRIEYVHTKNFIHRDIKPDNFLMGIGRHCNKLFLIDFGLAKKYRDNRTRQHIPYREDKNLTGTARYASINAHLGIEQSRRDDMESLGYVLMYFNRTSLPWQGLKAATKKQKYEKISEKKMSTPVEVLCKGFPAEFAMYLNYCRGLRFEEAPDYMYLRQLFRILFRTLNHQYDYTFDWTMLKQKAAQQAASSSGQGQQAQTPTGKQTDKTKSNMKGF

`Cc1cnc2nc1Nc1cccc(c1)COCc1cc(ccc1OCCN1CCCC1)N2` [Compound 1] gave a remaining binding at 0.1 µM [1] of 81%, a remaining binding at 0.1 µM [2] of 80% and a remaining binding at 0.1 µM [3] of 100%. The remaining binding at 0.1 µM [4] was 38%, the remaining binding at 0.1 µM [5] was 98% and the remaining binding at 0.1 µM [6] was 81%. For the same compound, the remaining binding at 0.1 µM [7] was 77%, the remaining binding at 0.1 µM [8] was 95% and the remaining binding at 0.1 µM [9] was 99%. The remaining binding at 0.1 µM [10] was 100%, the remaining binding at 0.1 µM [11] was 43% and the remaining binding at 0.1 µM [12] was 89%. For the same compound, the remaining binding at 0.1 µM [13] was 91%, the remaining binding at 0.1 µM [14] was 23% and the remaining binding at 0.1 µM [15] was 79%. The remaining binding at 0.1 µM [16] was 91%, the remaining binding at 0.1 µM [17] was 72% and the remaining binding at 0.1 µM [18] was 14%. For the same compound, the remaining binding at 0.1 µM [19] was 100%, the remaining binding at 0.1 µM [20] was 83% and the remaining binding at 0.1 µM [21] was 74%. The remaining binding at 0.1 µM [22] was 79%, the remaining binding at 0.1 µM [23] was 88% and the remaining binding at 0.1 µM [24] was 91%. For the same compound, the remaining binding at 0.1 µM [25] was 83%.
